Read-outs that look alike come from different tables or passages of the source. Peptide text beside a SMILES is read from it. * marks the point of attachment. Cbz = O=C(OCc1ccccc1)*
Tested on: SARS-CoV-2
Experiment: microbe, parasite or virus in culture
Assay type: cell-based
[1] = Severe acute respiratory syndrome coronavirus 2, 120 h

Molecule | Maximum confluence reached (%) (5 days) | other results
O=C(O)c1ccc(N2C(=O)C(=Cc3ccc(-c4ccc([N+](=O)[O-])cc4)o3)C=C2c2ccccc2)cc1 [compound 105, 4-[3-[5-(4-Nitrophenyl)furan-2-ylmethylene]-2-oxo-5-phenyl-2,3-dihydro-1H-pyrrol-1-yl]benzoic acid] | 52.15 | IC50 [1]: 236 µM
CC(C)COCC(CN(Cc1ccccc1)c1ccccc1)N1CCCC1.Cl.O (stereo not shown) [compound 78, 1-[1-(N-Benzylanilino)-3-isobutoxy-2-propyl]pyrrolidine monohydrochloride monohydrate] | 30.41 | 
O=[N+]([O-])c1ccc(N/N=C/c2sc(N3CCOCC3)nc2-c2ccccc2)c(S(=O)(=O)Nc2ccccc2Cl)c1 [compound 73, N-(2-chlorophenyl)-2-[(2E)-2-[(2-morpholin-4-yl-4-phenyl-1,3-thiazol-5-yl)methylidene]hydrazinyl]-5-nitrobenzenesulfonamide] | 53.9 | 
(4R,4aS)-18-Ethenyl-4,4a-dihydro-3,4-bis(methoxycarbonyl)-4a,8,14,19-tetramethyl-24H,26H-benzo[b]porphine-9,13-dipropanoic acid monomethyl ester [compound 39] | 89.5 | IC50 (read-out: IC50): 30 µM
CC(C)(O)CNc1ncc(-c2ccnc(Nc3ccnc(Cl)c3)n2)c(CC2CC2)n1 [compound 60, 1-[[2-[(2-chloro-4-pyridinyl)amino]-4'-(cyclopropylmethyl) [4,5'-bipyrimidin]-2'-yl]amino]-2-methyl-2-propanol] | 45.62 | 
CCN(CC)CCOc1ccc(C(=C(Cl)c2ccccc2)c2ccccc2)cc1.O=C(O)CC(O)(CC(=O)O)C(=O)O [compound 82, 2-[4-(2-Chloro-1,2-diphenylvinyl)phenoxy]-N,N-diethylethanamine citrate] | 54.73 | 
Cc1[nH]c(/C=C2\C(=O)Nc3ccc(S(=O)(=O)Cc4c(Cl)cccc4Cl)cc32)c(C)c1C(=O)N1CCC[C@@H]1CN1CCCC1 [compound 53, 5-(2,6-Dichlorobenzylsulfonyl)-3(Z)-[3,5-dimethyl-4-[2(R)-(pyrrolidin-1-ylmethyl)pyrrolidin-1-ylcarbonyl]-1H-pyrrol-2-ylmethylene]-2,3-dihydro-1H-indol-2-one] | 95.69 | 
CC(C)(C)c1cc(C=C(C#N)C#N)cc(C(C)(C)C)c1O [compound 66, (3,5-Di-tert-butyl-4-hydroxybenzylidene)malononitrile] | 47.6 | 
CN(C)CCC=C1c2ccccc2C=Cc2ccccc21.Cl [compound 90, 3-(5H-Dibenzo[a,d]cyclohepten-5-ylidene)-N,N-dimethylpropan-1-amine hydrochloride] |  | Maximum confluence reached (%): 70,19%; IC50 [1]: 12.1 µM
C#CCC(Cc1cnc2nc(N)nc(N)c2n1)c1ccc(C(=O)N[C@@H](CCC(=O)O)C(=O)O)cc1 (stereo partly drawn) [compound 3, N-[4-[2-(2,4-Diaminopteridin-6-yl)-1-(2-propynyl)ethyl]benzoyl]-L-glutamic acid 10-Propargyl-10-deazaaminopterin] | 76.65 | 
CN1CCN(CC/C=C2/c3ccccc3Sc3ccc(S(=O)(=O)N(C)C)cc32)CC1 [compound 109, (Z)-N,N-Dimethyl-9-[3-(4-methyl-1-piperazinyl)propylidene]thioxant hene-2-sulfonamide] | 36.55 | 
CC(C)C[C@@H](C=O)NC(=O)[C@H](CC(C)C)NC(=O)[C@H](CC(C)C)NC(=O)OCc1ccccc1 [compound 52, Benzyloxycarbonyl-L-leucyl-L-leucyl-L-leucinal] (Cbz-Leu-Leu-Leu-aldehyde) | 82.81 | 
(1R,2S,3R)-3-(6-Amino-9H-purin-9-yl)-1,2-cyclopentanediol [compound 75] |  | Maximum confluence reached (%) (confluence of SARS-CoV-2 infected VeroE6-EGFP cells after test compound treatment compared to control wells, 5 days): 33.14%; IC50 (half maximal concentration able to recover the cytopathic effect of infection, VeroE6-EGFP cells, 0.01 MOI, 5 days, 8 concentrations, read-out: IC50): 0.36 µM
C[C@H]1CCC/C=C/[C@@H]2C[C@H](O)C[C@H]2[C@H](O)/C=C/C(=O)O1 (relative stereo) [compound 47, (1R,2S,7S,13S,15S)-2,15-Dihydroxy-7-methyl-6-oxabicyclo[11.3.0]hexadeca-3(E),11(E)-dien-5-one [1S-(1R*,2E,6R*,10E,11aR*,13R*,14a S*)]-1,6,7,8,9,11a,12,13,14,14a-Decahydro-1,13-dihydroxy-6-methyl-4H-cyclopent[f]oxacyclotridecin-4-one] |  | Emax (Severe acute respiratory syndrome coronavirus 2, 120 h, 5 days, read-out: Maximum confluence reached (%)): 122%
CNCc1ccc(-c2cc(-c3nc(-c4ccc(S(=O)(=O)C(C)C)cc4)cnc3N)on2)cc1 [compound 34, 3-[3-[4-[(Methylamino)methyl]phenyl]-1,2-oxazol-5-yl]-5-[4-(propan-2-ylsulfonyl)phenyl]pyrazin-2-amine] | 99.21 | 

From EP4000606A1, “COMPOUNDS FOR CORONAVIRUS INFECTION TREATMENT AND/OR PREVENTION” (priority 2020, dated 2022)
